The target of one assay is T1, B-RAF G466V (Homo sapiens, UniProt P15056, G466V).
T1 construct: expressed in transfected cells; host or cells: T-Rex 293 cells (Invitrogen #R71007)
In words: Target protein degradation, assay B: T-Rex 293 cells, HA-B-RAF_G466V, 96 well format. Conditions: T-Rex 293 HA-B-RAF_G466V cells, 24 hours, Examples 1-82. In kind it is cell-based. Here is the method:
B. T-Rex 293 Cells (96 Well Format)
(§1) T-Rex 293 cells were purchased from Invitrogen (#R71007), and stably transfected with a pcDNA4/TO_HA-B-RAF_G466V construct, using 400 ug Zeocin for selection. G466V cells are plated in ulbecco's Modified Eagle Medium (DMEM; Gibco #11965118) containing 10% fetal bovine serum (FBS; Gibco #16000044) and 0.75 ng/mL doxycycline (Selleckchem #4163) at a density of 5,000 cells/well in 50 μl on poly-D-lysine (PDL) coated, black clear bottom 96-well plates (Corning #354640) and incubated for 24 hours at 37° C. with 5% CO2. The following day 50 ul of tested compound was added at 2× concentration in DMEM with a final concentration ranging from 30 nM to 3 pM in 0.1% dimethylsulfoxide (DMSO), and incubated for 24 hours at 37° C. with 5% CO2. At the end of the experimental treatment, the media was flicked off and cells washed once with phosphate-buffered saline (PBS)++(PBS with CaCl and MgCl) and gently replacing with 200 μl PBS++ per well. The PBS++ was removed and 50 uL 4% paraformaldehyde (PFA; EMS #15710) in PBS++ was added, and incubate at room temperature for 15 minutes. Cells were washed once with PBS++ and 50 uL 0.1% Triton X-100 (Fisher #BP151-500) in PBS++ was added. Plate was incubate for 5 minutes at room temperature. Cells were was once with PBS++. Cells were blocked with 100 uL Licor blocking buffer (Licor #927-50000) for 1 hour at room temperature. Next, 50 uL of HA antibody (CST #3724) at 1:1000 in Licor blocking buffer was added, and the plate icubate overnight at 4° C. The plates were parafilmed to prevent evaporation. Plate was washed three times with 200 uL PBS++. Fifty microliters of HCS secondary antibody solution [1:1000 Hoechst (Invitrogen #H3570), 1:1000 phalloidin (Invitrogen #A22287) and 1:5000 Alexa fluor (Invitrogen #A11008)] was added and incubated for 1 hour. Plate was wash three times with 200 uL PBS++, and imaged on a high content reader (ImageXpress Micro XLS, Molecular Devices).
(§2) The concentration of an exemplary compound that leads to half maximal degradation (DC50) as well as the maximum degradation observed (Dmax, conventionally expressed as a percentage of control) is shown below in Table 2.

In a further assay the target is T2, B-RAF V600E (Homo sapiens, UniProt P15056, V600E).
T2 construct: expressed in transfected cells; host or cells: T-Rex 293 cells (Invitrogen #R71007)
T2 sequence (P15056 whole entry V600E): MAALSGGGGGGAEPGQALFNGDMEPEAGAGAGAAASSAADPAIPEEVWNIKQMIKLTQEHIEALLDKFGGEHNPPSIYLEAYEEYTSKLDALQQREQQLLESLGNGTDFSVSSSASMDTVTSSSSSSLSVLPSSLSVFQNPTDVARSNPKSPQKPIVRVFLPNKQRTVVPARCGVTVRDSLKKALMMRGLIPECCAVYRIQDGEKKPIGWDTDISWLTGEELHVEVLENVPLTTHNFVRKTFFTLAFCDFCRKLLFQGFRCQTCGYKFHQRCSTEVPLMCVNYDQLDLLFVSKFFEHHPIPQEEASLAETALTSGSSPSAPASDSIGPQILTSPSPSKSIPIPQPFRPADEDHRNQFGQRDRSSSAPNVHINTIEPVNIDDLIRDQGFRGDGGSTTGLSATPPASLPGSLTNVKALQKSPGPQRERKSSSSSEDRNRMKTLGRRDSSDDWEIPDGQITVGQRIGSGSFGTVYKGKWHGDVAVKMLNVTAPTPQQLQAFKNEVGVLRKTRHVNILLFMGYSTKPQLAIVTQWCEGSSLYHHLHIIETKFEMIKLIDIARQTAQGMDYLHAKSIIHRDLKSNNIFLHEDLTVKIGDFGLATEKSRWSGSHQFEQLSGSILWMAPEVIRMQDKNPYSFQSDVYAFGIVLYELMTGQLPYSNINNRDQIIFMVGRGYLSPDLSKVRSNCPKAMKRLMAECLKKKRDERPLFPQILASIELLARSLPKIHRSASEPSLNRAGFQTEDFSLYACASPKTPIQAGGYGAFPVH
Put plainly: Target protein degradation, assay A: T-Rex 293 cells, HA-B-RAF_V600E, 96 well format. It is filed as cell-based. The following applies: T-Rex 293 HA-B-RAF_V600E cells, 24 hours, Examples 1-82. Here is the method: A. T-Rex 293 Cells (96 well format)
as §1, with “pcDNA4/TO_HA-B-RAF_V600E” for “pcDNA4/TO_HA-B-RAF_G466V”, “V600e” for “G466V”, “1” for “0.75”, “1 μM to 0.1” for “30”, “nM” for “nM to 3 pM”
as §2

We go through 10 molecules from patent US11957759B1, “Rapidly accelerated fibrosarcoma (RAF) degrading compounds and associated methods of use” (Arvinas Operations, Inc., priority 2022, dated 2024).

Molecules are shown by their SMILES.

A word on the DC50: it is the midpoint of the concentration-degradation curve. As a reminder, the Dmax is the greatest extent of degradation seen. Low values mean shallow degradation, high ones deep degradation.

T1 sequence (P15056 whole entry G466V): as the sequence (P15056 whole entry V600E) above, with G466V, E600V counted along it

As for `N#Cc1c(NS(=O)(=O)N2CC[C@@H](F)C2)ccc(F)c1Oc1ccc2ncn(-c3ccc(N4CCN(C(=O)CC5(O)CCN(c6ccc7c(c6)CN([C@H]6CCC(=O)NC6=O)C7=O)CC5)CC4)cc3)c(=O)c2c1` [Example 4, (3R)—N-(2-cyano-3-{[3-(4-{4-[2-(1-{2-[(3S)-2,6-dioxopiperidin-3-yl]-1-oxo-2,3-dihydro-1H-isoindol-5-yl}-4-hydroxypiperidin-4-yl)acetyl]piperazin-1-yl}phenyl)-4-oxo-3,4-dihydroquinazolin-6-yl]oxy}-4-fluorophenyl)-3-fluoropyrrolidine-1-sulfonamide], on B-RAF G466V, the DC50 is 1 to 10 nM and the greatest degradation seen (Dmax) lay within 35 to 70%. In addition, at B-RAF V600E, the DC50 lay in the range of 5 to 50 nM and the Dmax fell in the range of 35 to 70%.

`N#Cc1c(NS(=O)(=O)N2CC[C@@H](F)C2)ccc(F)c1Oc1ccc2ncn(-c3ccc(N4CCN(c5ccc6c(c5)CN(C5CCC(=O)NC5=O)C6=O)CC4)cc3)c(=O)c2c1` (stereo partly drawn) [Example 5, (3R)—N-[2-cyano-3-[3-[4-[4-[2-(2,6-dioxo-3-piperidyl)-1-oxo-isoindolin-5-yl]piperazin-1-yl]phenyl]-4-oxo-quinazolin-6-yl]oxy-4-fluoro-phenyl]-3-fluoro-pyrrolidine-1-sulfonamide]: the half-maximal degradation concentration (DC50) at B-RAF G466V was more than 30 nM; at B-RAF V600E, more than 500 nM.

For the molecule `N#Cc1c(NS(=O)(=O)N2CC[C@@H](F)C2)ccc(F)c1Oc1ccc2ncn(C3CCN(CC4CCN(c5ccc6c(c5)CN(C5CCC(=O)NC5=O)C6=O)CC4)CC3)c(=O)c2c1` (stereo partly drawn) [Example 6, (3R)-N-[2-cyano-3-({3-[1-({1-[2-(2,6-dioxopiperidin-3-yl)-1-oxo-2,3-dihydro-1H-isoindol-5-yl]piperidin-4-yl}methyl)piperidin-4-yl]-4-oxo-3,4-dihydroquinazolin-6-yl}oxy)-4-fluorophenyl]-3-fluoropyrrolidine-1-sulfonamide], the values for the DC50 on B-RAF G466V and at B-RAF V600E were not above 1 nM and more than 500 nM, respectively. At B-RAF G466V, the Dmax was not above 35%.

On to `N#Cc1c(NS(=O)(=O)N2CC[C@@H](F)C2)ccc(F)c1Oc1ccc2ncn(C3CCN(CCN4CCN(c5ccc6c(c5)CN(C5CCC(=O)NC5=O)C6=O)CC4)CC3)c(=O)c2c1` (stereo partly drawn) [Example 7, (3R)-N-[2-cyano-3-({3-[1-(2-{4-[2-(2,6-dioxopiperidin-3-yl)-1-oxo-2,3-dihydro-1H-isoindol-5-yl]piperazin-1-yl}ethyl)piperidin-4-yl]-4-oxo-3,4-dihydroquinazolin-6-yl}oxy)-4-fluorophenyl]-3-fluoropyrrolidine-1-sulfonamide], for which, on B-RAF G466V, the DC50 is 10 to 30 nM and the Dmax is 35 to 70%. In addition, at B-RAF V600E, the DC50 is more than 500 nM and the Dmax is 35 to 70%.

For `N#Cc1c(NS(=O)(=O)N2CC[C@@H](F)C2)ccc(F)c1Oc1ccc2ncn(-c3ccc(N4CCN(CC5CN(c6ccc7c(c6)CN(C6CCC(=O)NC6=O)C7=O)C5)CC4)nc3)c(=O)c2c1` (stereo partly drawn) [Example 8, (3R)-N-{2-cyano-3-[(3-{6-[4-({1-[2-(2,6-dioxopiperidin-3-yl)-1-oxo-2,3-dihydro-1H-isoindol-5-yl]azetidin-3-yl}methyl)piperazin-1-yl]pyridin-3-yl}-4-oxo-3,4-dihydroquinazolin-6-yl)oxy]-4-fluorophenyl}-3-fluoropyrrolidine-1-sulfonamide], the results for the DC50 at B-RAF G466V and on B-RAF V600E were 1 to 10 nM and 50 to 500 nM, respectively. In addition, the values for the Dmax at B-RAF G466V and on B-RAF V600E were not above 35% and 35 to 70%, respectively.

Regarding `N#Cc1c(NS(=O)(=O)N2CC[C@@H](F)C2)ccc(F)c1Oc1ccc2ncn(-c3cnc(N4CCN(CC5CN(c6ccc7c(c6)CN(C6CCC(=O)NC6=O)C7=O)C5)CC4)nc3)c(=O)c2c1` (stereo partly drawn) [Example 9, (3R)-N-{2-cyano-3-[(3-{2-[4-({1-[2-(2,6-dioxopiperidin-3-yl)-1-oxo-2,3-dihydro-1H-isoindol-5-yl]azetidin-3-yl}methyl)piperazin-1-yl]pyrimidin-5-yl}-4-oxo-3,4-dihydroquinazolin-6-yl)oxy]-4-fluorophenyl}-3-fluoropyrrolidine-1-sulfonamide], the DC50 on B-RAF G466V is more than 30 nM. On B-RAF V600E, the half-maximal degradation concentration (DC50) was 50 to 500 nM and the Dmax fell in the range of 35 to 70%.

Take `N#Cc1c(NS(=O)(=O)N2CC[C@@H](F)C2)ccc(F)c1Oc1ccc2ncn(-c3ccc(N4CCN(CCN5CCN(c6ccc7c(c6)CN(C6CCC(=O)NC6=O)C7=O)CC5)CC4)cc3)c(=O)c2c1` (stereo partly drawn) [Example 10, (3R)-N-{2-cyano-3-[(3-(4-[4-(2-{4-[2-(2,6-dioxopiperidin-3-yl)-1-oxo-2,3-dihydro-1H-isoindol-5-yl]piperazin-1-yl}ethyl)piperazin-1-yl]phenyl}-4-oxo-3,4-dihydroquinazolin-6-yl)oxy]-4-fluorophenyl}-3-fluoropyrrolidine-1-sulfonamide]: the figures for the DC50 at B-RAF G466V and on B-RAF V600E were more than 30 nM and more than 500 nM, respectively.

For the molecule `N#Cc1c(NS(=O)(=O)N2CC[C@@H](F)C2)ccc(F)c1Oc1ccc2ncn(-c3ccc(N4CCN(CC5CCN(c6ccc(NC7CCC(=O)NC7=O)cc6F)CC5)CC4)cc3)c(=O)c2c1` (stereo partly drawn) [Example 11, (3R)-N-(2-cyano-3-{[3-(4-{4-[(1-{4-[(2,6-dioxopiperidin-3-yl)amino]-2-fluorophenyl}piperidin-4-yl)methyl]piperazin-1-yl}phenyl)-4-oxo-3,4-dihydroquinazolin-6-yl]oxy}-4-fluorophenyl)-3-fluoropyrrolidine-1-sulfonamide], the values for the DC50 at B-RAF G466V and at B-RAF V600E were more than 30 nM and 5 to 50 nM, respectively. Also, the Dmax on B-RAF V600E lay within 35 to 70%.

`N#Cc1c(NS(=O)(=O)N2CC[C@@H](F)C2)ccc(F)c1Oc1ccc2ncn(-c3ccc(N4CCN(CC5CCN(c6ccc(NC7CCC(=O)NC7=O)cc6F)CC5)CC4)nc3)c(=O)c2c1` (stereo partly drawn) [Example 12, (3R)-N-(2-cyano-3-{[3-(6-{4-[(1-{4-[(2,6-dioxopiperidin-3-yl)amino]-2-fluorophenyl}piperidin-4-yl)methyl]piperazin-1-yl}pyridin-3-yl)-4-oxo-3,4-dihydroquinazolin-6-yl]oxy}-4-fluorophenyl)-3-fluoropyrrolidine-1-sulfonamide]: the half-maximal degradation concentration (DC50) at B-RAF G466V was more than 30 nM. Moreover, on B-RAF V600E, the 50% degradation concentration (DC50) lay within 5 to 50 nM and the Dmax is 35 to 70%.

`N#Cc1c(NS(=O)(=O)N2CC[C@@H](F)C2)ccc(F)c1Oc1ccc2ncn(-c3ccc(N4CCN(CC5CCN(c6ccc(C7CCC(=O)NC7=O)cc6F)CC5)CC4)cc3)c(=O)c2c1` (stereo partly drawn) [Example 13, (3R)-N-{2-cyano-3-[(3-{4-[4-({1-[4-(2,6-dioxopiperidin-3-yl)-2-fluorophenyl]piperidin-4-yl}methyl)piperazin-1-yl]phenyl}-4-oxo-3,4-dihydroquinazolin-6-yl)oxy]-4-fluorophenyl}-3-fluoropyrrolidine-1-sulfonamide] had a DC50 on B-RAF G466V of more than 30 nM. Besides, on B-RAF V600E, the DC50 was 5 to 50 nM and the maximal degradation (Dmax) lay in the range of 35 to 70%.
